Test results as given in PubChem BioAssay (NCI).
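Method: 48-hour compound exposure of cells in 96-well plates, five concentrations, linear interpolation of endpoints. At the GI50, growth is halved. The concentration for full growth arrest is given as TGI.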

How the values were obtained:
Experiment in all cases: NCI tumour cell line growth inhibition, 48 h
PC-3 prostate = test system: PC-3 prostate
OVCAR-4 ovarian = test system: OVCAR-4 ovarian
EKVX NSCLC = test system: EKVX NSCLC
786-0 renal = test system: 786-0 renal
NCI-H23 lung = test system: NCI-H23 lung
MALME-3M melanoma = test system: MALME-3M melanoma
OVCAR-5 ovarian = test system: OVCAR-5 ovarian
KM12 colon = test system: KM12 colon
SN12C renal = test system: SN12C renal
SK-MEL-2 melanoma = test system: SK-MEL-2 melanoma
SK-MEL-5 melanoma = test system: SK-MEL-5 melanoma
SNB-75 CNS = test system: SNB-75 CNS
HS 578T breast = test system: HS 578T breast
MDA-MB-435 = test system: MDA-MB-435
MDA-MB-231 breast = test system: MDA-MB-231 breast
HT29 colon = test system: HT29 colon
SR leukemia = test system: SR leukemia
CCRF-CEM leukemia = test system: CCRF-CEM leukemia
NCI-H226 lung = test system: NCI-H226 lung
NCI-H522 lung = test system: NCI-H522 lung
BT-549 breast = test system: BT-549 breast
SK-MEL-28 melanoma = test system: SK-MEL-28 melanoma
IGROV1 ovarian = test system: IGROV1 ovarian
SK-OV-3 ovarian = test system: SK-OV-3 ovarian
HCT-116 colon = test system: HCT-116 colon
NCI-H460 lung = test system: NCI-H460 lung
SNB-19 CNS = test system: SNB-19 CNS
OVCAR-8 ovarian = test system: OVCAR-8 ovarian
SF-295 CNS = test system: SF-295 CNS
HCC-2998 colon = test system: HCC-2998 colon
SF-268 CNS = test system: SF-268 CNS
SF-539 CNS = test system: SF-539 CNS
UACC-257 melanoma = test system: UACC-257 melanoma
K-562 leukemia = test system: K-562 leukemia
HOP-92 NSCLC = test system: HOP-92 NSCLC
RPMI-8226 leukemia = test system: RPMI-8226 leukemia
M14 melanoma = test system: M14 melanoma
MCF7 breast = test system: MCF7 breast
HOP-62 NSCLC = test system: HOP-62 NSCLC
LOX IMVI melanoma = test system: LOX IMVI melanoma
HCT-15 colon = test system: HCT-15 colon
NCI/ADR-RES ovarian = test system: NCI/ADR-RES ovarian
SW-620 colon = test system: SW-620 colon
UO-31 renal = test system: UO-31 renal
CAKI-1 renal = test system: CAKI-1 renal
U251 CNS = test system: U251 CNS
TK-10 renal = test system: TK-10 renal
MOLT-4 leukemia = test system: MOLT-4 leukemia
COLO 205 colon = test system: COLO 205 colon
A498 renal = test system: A498 renal
DU-145 prostate = test system: DU-145 prostate
UACC-62 melanoma = test system: UACC-62 melanoma
A549 NSCLC = test system: A549 NSCLC
ACHN renal = test system: ACHN renal
HL-60(TB) leukemia = test system: HL-60(TB) leukemia
T-47D breast = test system: T-47D breast
RXF 393 renal = test system: RXF 393 renal

N#Cc1c(NC(=O)c2cccc(C(F)(F)F)c2F)sc2c1CCC(=O)C2
GI50 (PC-3 prostate): 114 nM | TGI (PC-3 prostate): 1480 nM | GI50 (OVCAR-4 ovarian): 393 nM | TGI (OVCAR-4 ovarian): 1730 nM | GI50 (EKVX NSCLC): 563 nM | TGI (EKVX NSCLC): 4400 nM | GI50 (786-0 renal): 444 nM | TGI (786-0 renal): > 47500 nM | GI50 (NCI-H23 lung): 337 nM | TGI (NCI-H23 lung): 2070 nM | GI50 (MALME-3M melanoma): 266 nM | TGI (MALME-3M melanoma): 694 nM | GI50 (OVCAR-5 ovarian): 392 nM | TGI (OVCAR-5 ovarian): 1780 nM | GI50 (KM12 colon): 464 nM | TGI (KM12 colon): 1980 nM | GI50 (SN12C renal): 326 nM | TGI (SN12C renal): 2220 nM | GI50 (SK-MEL-2 melanoma): 2150 nM | TGI (SK-MEL-2 melanoma): 5330 nM | GI50 (SK-MEL-5 melanoma): 372 nM | TGI (SK-MEL-5 melanoma): 1320 nM | GI50 (SNB-75 CNS): 459 nM | TGI (SNB-75 CNS): 3550 nM | GI50 (HS 578T breast): 357 nM | TGI (HS 578T breast): 2320 nM | GI50 (MDA-MB-435): 336 nM | TGI (MDA-MB-435): 1400 nM | GI50 (MDA-MB-231 breast): 356 nM | TGI (MDA-MB-231 breast): 1350 nM | GI50 (HT29 colon): 226 nM | TGI (HT29 colon): 1310 nM | GI50 (SR leukemia): 76.1 nM | TGI (SR leukemia): > 100000 nM | GI50 (CCRF-CEM leukemia): 190 nM | TGI (CCRF-CEM leukemia): > 100000 nM | GI50 (NCI-H226 lung): 487 nM | TGI (NCI-H226 lung): 2570 nM | GI50 (NCI-H522 lung): 194 nM | TGI (NCI-H522 lung): 719 nM | GI50 (BT-549 breast): 308 nM | TGI (BT-549 breast): 1430 nM | GI50 (SK-MEL-28 melanoma): 475 nM | TGI (SK-MEL-28 melanoma): 1790 nM | GI50 (IGROV1 ovarian): 490 nM | TGI (IGROV1 ovarian): 2200 nM | GI50 (SK-OV-3 ovarian): 1960 nM | TGI (SK-OV-3 ovarian): 6370 nM | GI50 (HCT-116 colon): 124 nM | TGI (HCT-116 colon): 1260 nM | GI50 (NCI-H460 lung): 549 nM | TGI (NCI-H460 lung): > 38900 nM | GI50 (SNB-19 CNS): 410 nM | TGI (SNB-19 CNS): 15600 nM | GI50 (OVCAR-8 ovarian): 356 nM | TGI (OVCAR-8 ovarian): > 100000 nM | GI50 (SF-295 CNS): 515 nM | TGI (SF-295 CNS): 2420 nM | GI50 (HCC-2998 colon): 588 nM | TGI (HCC-2998 colon): 2090 nM | GI50 (SF-268 CNS): 408 nM | TGI (SF-268 CNS): > 100000 nM | GI50 (SF-539 CNS): 244 nM | TGI (SF-539 CNS): 800 nM | GI50 (UACC-257 melanoma): 624 nM | TGI (UACC-257 melanoma): 3180 nM | GI50 (K-562 leukemia): 112 nM | TGI (K-562 leukemia): > 100000 nM | GI50 (HOP-92 NSCLC): 243 nM | TGI (HOP-92 NSCLC): 679 nM | GI50 (RPMI-8226 leukemia): 66.4 nM | GI50 (M14 melanoma): 378 nM | TGI (M14 melanoma): 2100 nM | GI50 (MCF7 breast): 276 nM | TGI (MCF7 breast): > 23000 nM | GI50 (HOP-62 NSCLC): 782 nM | GI50 (LOX IMVI melanoma): 311 nM | TGI (LOX IMVI melanoma): 1180 nM | GI50 (HCT-15 colon): 246 nM | TGI (HCT-15 colon): 1140 nM | GI50 (NCI/ADR-RES ovarian): 345 nM | TGI (NCI/ADR-RES ovarian): 1820 nM | GI50 (SW-620 colon): 225 nM | TGI (SW-620 colon): 1460 nM | GI50 (UO-31 renal): 220 nM | TGI (UO-31 renal): 730 nM | GI50 (CAKI-1 renal): 221 nM | TGI (CAKI-1 renal): 866 nM | GI50 (U251 CNS): 356 nM | TGI (U251 CNS): 2240 nM | GI50 (TK-10 renal): 330 nM | GI50 (MOLT-4 leukemia): 308 nM | TGI (MOLT-4 leukemia): > 37700 nM | GI50 (COLO 205 colon): 210 nM | TGI (COLO 205 colon): 437 nM | GI50 (A498 renal): 2190 nM | TGI (A498 renal): 5930 nM | GI50 (DU-145 prostate): 1270 nM | TGI (DU-145 prostate): > 100000 nM | GI50 (UACC-62 melanoma): 317 nM | TGI (UACC-62 melanoma): 1330 nM | GI50 (A549 NSCLC): 1880 nM | TGI (A549 NSCLC): > 100000 nM | GI50 (ACHN renal): 296 nM | TGI (ACHN renal): 1010 nM | GI50 (HL-60(TB) leukemia): 235 nM | TGI (HL-60(TB) leukemia): 10900 nM | GI50 (T-47D breast): 151 nM | TGI (T-47D breast): 1650 nM | GI50 (RXF 393 renal): 221 nM | TGI (RXF 393 renal): 714 nM
